{"source": "BindingDB's records for doi:10.1016/s0960-894x(01)00577-7", "about": "(University of Toledo, 2001)"}
{"test": "Inhibitory concentration against polymerization in A17 double mutant HIV-1 RT using a template primer of poly rC/dG12-18 and [3H]dGTP", "units": {"IC50": "µM"}}
{"smiles": "O=C(OC1COc2cc(O)ccc2C1)c1ccc(O)c(O)c1O", "note": "(stereo not drawn) [2,3,4-Trihydroxy-benzoic acid 7-hydroxy-chroman-3-yl ester]", "IC50": 30.8}
{"smiles": "O=C(OC1COc2ccccc2C1)c1ccc(O)c(O)c1O", "note": "(stereo not drawn) [2,3,4-Trihydroxy-benzoic acid chroman-3-yl ester]", "IC50": "> 100"}
{"smiles": "O=C(OC1COc2cc(O)cc(O)c2C1)c1cccc(O)c1O", "note": "(stereo not drawn) [2,3-Dihydroxy-benzoic acid 5,7-dihydroxy-chroman-3-yl ester]", "IC50": "> 100"}
